{
  "source": "patent US11141384B2",
  "about": "“Long-acting formulations” (Janssen Pharmaceutica NV, priority 2017, dated 2021)",
  "key": {"[1]": {"molecular_target": "mycobacterial ATP synthase (Mycobacterium tuberculosis, UniProt P9WPS1+P9WPV7)", "conditions": "cited from earlier work"}, "[2]": {"experiment": "Oral (PO) 13 week toxicity study in rats, total exposure", "assay_type": "in vivo", "conditions": "rat, top dose of 13 week study"}, "M lepra": {"tested_on": "M lepra", "conditions": "cited from earlier work"}, "[3]": {"experiment": "Oral (PO) 13 week toxicity study, comparison with dog IM/SC exposure", "assay_type": "in vivo, beagle dog", "conditions": "13 week PO study, 18 mg/kg"}, "[4]": {"conditions": "in vivo; cited from earlier work"}, "M. tuberculosis H37Rv": {"tested_on": "M. tuberculosis H37Rv", "assay_type": "in vivo, Mycobacterium tuberculosis", "conditions": "for Mean (SD) log10 M. tuberculosis CFU/lung: 5 days per week"}},
  "note": "Read-outs that look alike come from different tables or passages of the source.",
  "data": [
    {"compound": "COc1nc2ccc(Br)cc2cc1[C@@H](c1ccccc1)[C@@](O)(CCN(C)C)c1cccc2ccccc12", "note": "[bedaquiline]", "values": [
      {"measurement": "selectivity index for mycobacterial ATP synthase versus eukaryotic mitochondrial ATP synthase", "setting": "[1]", "value": "more than 20000"},
      {"measurement": "total exposure after PO administration during 3 months", "setting": "[2]", "value": "2 385 383 ng·h/mL"},
      {"measurement": "minimal dose killing 99% of bacilli", "setting": "M lepra", "value": "< 5.0", "unit": "mg/kg/wk"},
      {"measurement": "total exposure after PO for the same period", "setting": "[3]", "value": "13 988 520 ng·h/mL"},
      {"measurement": "mean terminal elimination half-life", "setting": "[4]", "value": "approximately 5.5 months"},
      {"measurement": "decline in lung CFU compared to untreated control mice", "setting": "M. tuberculosis H37Rv; 2.67 mg/kg by gavage 5/7, 12 weeks (total 160 mg/kg)", "value": 1.7, "unit": "log10 CFU/lung"},
      {"measurement": "decline in lung CFU counts", "setting": "M. tuberculosis H37Rv; 5.33 mg/kg by gavage 5/7, 12 weeks (total 320 mg/kg)", "value": "about 3 log10 CFU/lung"},
      {"measurement": "additional decrease of lung CFU counts", "setting": "M. tuberculosis H37Rv; 8 mg/kg by gavage 5/7, 8 weeks versus 4 weeks", "value": 1, "unit": "log10"},
      {"measurement": "decline in lung CFU relative to untreated mice", "setting": "M. tuberculosis H37Rv; 8 mg/kg by gavage 5/7, four weeks", "value": "about 1.5 log10 CFU/lung"},
      {"measurement": "reduction of M. tuberculosis lung CFU compared to untreated mice", "setting": "M. tuberculosis H37Rv; 25 mg/kg by gavage 5/7, after 4 weeks", "value": "about 1.7 log10 CFU/lung"},
      {"measurement": "reduction of M. tuberculosis lung CFU compared to untreated mice", "setting": "M. tuberculosis H37Rv; 25 mg/kg by gavage 5/7, after 8 weeks", "value": "~4.0", "unit": "log10 CFU/lung"},
      {"measurement": "reduction of M. tuberculosis lung CFU compared to untreated mice", "setting": "M. tuberculosis H37Rv; 25 mg/kg by gavage 5/7, after 12 weeks", "value": "~4.9", "unit": "log10 CFU/lung"},
      {"measurement": "Mean (SD) log10 M. tuberculosis CFU/lung", "setting": "M. tuberculosis H37Rv; regimen B2.67 (5/7): oral bedaquiline 2.67 mg/kg, Week 4 of treatment", "value": "3.96 (0.35) log10 CFU/lung"},
      {"measurement": "Mean (SD) log10 M. tuberculosis CFU/lung", "setting": "M. tuberculosis H37Rv; regimen B2.67 (5/7): oral bedaquiline 2.67 mg/kg, Week 8 of treatment", "value": "3.52 (0.38) log10 CFU/lung"},
      {"measurement": "Mean (SD) log10 M. tuberculosis CFU/lung", "setting": "M. tuberculosis H37Rv; regimen B2.67 (5/7): oral bedaquiline 2.67 mg/kg, Week 12 of treatment", "value": "3.16 (0.24) log10 CFU/lung"},
      {"measurement": "Mean (SD) log10 M. tuberculosis CFU/lung", "setting": "M. tuberculosis H37Rv; regimen B5.33 (5/7): oral bedaquiline 5.33 mg/kg, Week 4 of treatment", "value": "3.83 (0.25) log10 CFU/lung"},
      {"measurement": "Mean (SD) log10 M. tuberculosis CFU/lung", "setting": "M. tuberculosis H37Rv; regimen B5.33 (5/7): oral bedaquiline 5.33 mg/kg, Week 8 of treatment", "value": "3.15 (0.47) log10 CFU/lung"},
      {"measurement": "Mean (SD) log10 M. tuberculosis CFU/lung", "setting": "M. tuberculosis H37Rv; regimen B5.33 (5/7): oral bedaquiline 5.33 mg/kg, Week 12 of treatment", "value": "1.98 (0.17) log10 CFU/lung"},
      {"measurement": "Mean (SD) log10 M. tuberculosis CFU/lung", "setting": "M. tuberculosis H37Rv; regimen B8 (5/7): oral bedaquiline 8 mg/kg, Week 4 of treatment", "value": "3.30 (0.12) log10 CFU/lung"},
      {"measurement": "Mean (SD) log10 M. tuberculosis CFU/lung", "setting": "M. tuberculosis H37Rv; regimen B8 (5/7): oral bedaquiline 8 mg/kg, Week 8 of treatment", "value": "2.42 (0.26) log10 CFU/lung"},
      {"measurement": "Mean (SD) log10 M. tuberculosis CFU/lung", "setting": "M. tuberculosis H37Rv; regimen B8 (5/7): oral bedaquiline 8 mg/kg, Week 12 of treatment", "value": "0.69 (0.43) log10 CFU/lung"},
      {"measurement": "Mean (SD) log10 M. tuberculosis CFU/lung", "setting": "M. tuberculosis H37Rv; regimen B25 (5/7): oral bedaquiline 25 mg/kg, Week 4 of treatment", "value": "3.01 (0.45) log10 CFU/lung"},
      {"measurement": "Mean (SD) log10 M. tuberculosis CFU/lung", "setting": "M. tuberculosis H37Rv; regimen B25 (5/7): oral bedaquiline 25 mg/kg, Week 8 of treatment", "value": "0.82 (0.49) log10 CFU/lung"},
      {"measurement": "Mean (SD) log10 M. tuberculosis CFU/lung", "setting": "M. tuberculosis H37Rv; regimen B25 (5/7): oral bedaquiline 25 mg/kg, Week 12 of treatment", "value": "0.07 (0.09) log10 CFU/lung"}
    ]},
    {"compound": "CO[C@H]1/C=C/O[C@@]2(C)Oc3c(C)c(O)c4c(O)c(c(/C=N/N5CCN(C)CC5)c(O)c4c3C2=O)NC(=O)/C(C)=C\\C=C\\[C@H](C)[C@H](O)[C@@H](C)[C@@H](O)[C@@H](C)[C@H](OC(C)=O)[C@@H]1C", "note": "[R, rifampin]", "values": [
      {"measurement": "reduction of mean M. tuberculosis lung CFU count compared to untreated mice", "setting": "M. tuberculosis H37Rv; 10 mg/kg by gavage 5/7, after 4 weeks of treatment", "value": "approximately 1 log10 CFU/lung"},
      {"measurement": "reduction of mean M. tuberculosis lung CFU count compared to untreated mice", "setting": "M. tuberculosis H37Rv; 10 mg/kg by gavage 5/7, after 8 weeks of treatment", "value": "about 2 log10 CFU/lung"},
      {"measurement": "reduction of mean M. tuberculosis lung CFU count compared to untreated mice", "setting": "M. tuberculosis H37Rv; 10 mg/kg by gavage 5/7, after 12 weeks of treatment", "value": "~3", "unit": "log10 CFU/lung"},
      {"measurement": "Mean (SD) log10 M. tuberculosis CFU/lung", "setting": "M. tuberculosis H37Rv; regimen R10 (5/7): rifampin 10 mg/kg, Week 4 of treatment", "value": "3.39 (0.46) log10 CFU/lung"},
      {"measurement": "Mean (SD) log10 M. tuberculosis CFU/lung", "setting": "M. tuberculosis H37Rv; regimen R10 (5/7): rifampin 10 mg/kg, Week 8 of treatment", "value": "2.74 (0.62) log10 CFU/lung"},
      {"measurement": "Mean (SD) log10 M. tuberculosis CFU/lung", "setting": "M. tuberculosis H37Rv; regimen R10 (5/7): rifampin 10 mg/kg, Week 12 of treatment", "value": "1.27 (0.85) log10 CFU/lung"}
    ]},
    {"compound": "CNCC[C@@](O)(c1cccc2ccccc12)[C@H](c1ccccc1)c1cc2cc(Br)ccc2nc1OC", "note": "[Formulation M2]", "values": [
      {"measurement": "mean terminal elimination half-life", "setting": "[4]", "value": "approximately 5.5 months"}
    ]}
  ]
}
